Legend:
A. cepa = A. cepa toxicity test (root length); type: in vivo, Allium cepa; details: for Roots Length: NC 2.07 ± 0.61
Experimental: A. cepa toxicity test: Twelve equal-sized young onion bulbs were exposed for 96 h in the dark to different concentrations of compounds dissolved in DMSO, changing the sample solution every day. […] Root macroscopic parameters such as turgescence, consistency, change in color and root tip shape, were used as toxicity indexes.

Crl1790 cells = experiment: Cytotoxicity assay (CellTiter 96 AQueous One) on Crl1790; type: cell-based, human; details: Crl1790 cells, 24 h, only at the highest concentration (100 µM)
Experimental: (§1) The best antifungal and/or antiaflatoxigenic compounds were tested to determine their cytotoxic activity against human normal cell lines deriving from lung (HFL1, ATCC and CCL-153), skin (Hs27, ATCC, CRL1634) and colon (Crl1790, ATCC, CCD 841 CoN) and a cell line deriving from a hematological tumor (U937, ATCC and CRL-3253). These different cell lines have been chosen to simulate the different human exposition routes to pesticide. Cell culture conditions have been previously reported. Compound cytotoxicity was determined using CellTiter 96® AQueous One Solution Cell Proliferation Assay (Promega Corporation, Madison, WI, USA). The very detailed protocol was described by Bartoli et al.. In brief, cells were seeded in a 96-well plate at a density of 5000 cells/well and after 24 h cells were treated with different concentrations of the compounds (0.5–1–5–10–50–100 µM). After the treatment period (24 h), the CellTiter Reagent was added to each well (20 µL/well) and the plate incubated for 4 h at 37 °C. The plate was then read at 485 nm in a multiwell plate reader (TECAN SpectraFluor Plus, Männedorf, Switzerland).

Hs27 cells = experiment: Cytotoxicity assay (CellTiter 96 AQueous One) on Hs27; type: cell-based, human; details: Hs27 cells, 24 h treatment
Experimental: as §1

[1] = as above; type: cell-based, human; details: human, Hs27 normal skin cells, Hs27, 24 h, dose 0 = 100.00, read-out: Growth inhibition data
Experimental: as §1

Compound: CC(=NNC(N)=S)c1cccs1 [2-actpTS, 2-acetylthiophenethiosemicarbazone]
- Roots Length (A. cepa; 10 µM): 2.17 ± 0.53 cm
- Roots Length (A. cepa; 25 µM): 1.65 ± 0.43 cm
- Roots Length (A. cepa; 50 µM): 1.68 ± 0.39 cm
- Roots Length (A. cepa; 100 µM): 1.07 ± 0.23 cm
- EC50 (A. cepa; Allium cepa, read-out: EC50 (50% A. cepa root growth inhibition), 96 h exposure): ~100 µM
- cytotoxic activity (Crl1790 cells): mild cytotoxic activity
- cytotoxic effect (Hs27 cells): did not show cytotoxic effect
- viability at 24 h, 0.5 µM ([1]; 0.5 µM): 99.9 ± 7.65%
- viability at 24 h, 1 µM ([1]; 1 µM): 97 ± 4.78%
- viability at 24 h, 5 µM ([1]; 5 µM): 100 ± 5.97%
- viability at 24 h, 10 µM ([1]; 10 µM): 97.7 ± 3.73%
- viability at 24 h, 50 µM ([1]; 50 µM): 100 ± 9.25%
- viability at 24 h, 100 µM ([1]; 100 µM): 87.3 ± 8.07%

— article PMC8123576 (International Journal of Molecular Sciences, 2021)
